Each structure is given as a SMILES string. Where two headings read alike, the source gives them in different places. Square brackets hold non-standard residues; d marks the D form. Peptide text beside a SMILES is read from it.

Data set [1] addresses T1, recombinant ETB receptor (Homo sapiens, UniProt P24530). The following applies: read-out: Kb CHO-ETB; 120 min antagonist pre-incubation; ET-1 EC50–EC70; from IC50 via Cheng-Prusoff; geometric mean n = 3–8.
Data set [2] addresses T2, recombinant ETA receptor (Homo sapiens, UniProt P25101). Conditions: read-out: Kb CHO-ETA; 120 min antagonist pre-incubation; ET-1 EC50–EC70; from IC50 via Cheng-Prusoff; geometric mean n = 3–8.
Data set [3] deals with T3, ET receptors in human primary PASMC (Homo sapiens, UniProt P25101). Conditions: for Kb: ET-1 EC50–EC70.
T3 sequence (P25101 21-427): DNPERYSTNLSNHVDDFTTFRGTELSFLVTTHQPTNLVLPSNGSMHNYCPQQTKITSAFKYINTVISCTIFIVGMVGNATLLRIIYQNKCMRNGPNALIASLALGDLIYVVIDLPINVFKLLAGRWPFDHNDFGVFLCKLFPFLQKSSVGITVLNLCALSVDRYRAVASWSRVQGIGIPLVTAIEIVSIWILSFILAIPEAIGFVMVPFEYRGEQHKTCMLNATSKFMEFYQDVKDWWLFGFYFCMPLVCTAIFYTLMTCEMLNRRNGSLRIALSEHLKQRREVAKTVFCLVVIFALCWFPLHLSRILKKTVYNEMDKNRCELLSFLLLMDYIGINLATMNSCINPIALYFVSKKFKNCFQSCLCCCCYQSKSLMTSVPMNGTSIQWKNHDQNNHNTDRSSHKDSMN
For data set [4], the target named is T1, recombinant ETB receptor. Briefly: cell-based.
In data set [5] the target is T3, ET receptors in human primary PASMC. Briefly: cell-based. Conditions: ET-1 EC50–EC70.
Data set [6] has as its target T2, recombinant ETA receptor. The data set can be described thus: cell-based.
The target in data set [7] is T3, ET receptors in human primary PASMC.
Data set [8] has the same target. Briefly: cell-based. The following applies: 120 min pre-incubation.
Data set [9] shares this target. The source holds these as a separate data set.
The target is the same in data set [10]. The following applies: for proportion of receptors dissociated from within the first 30 seconds: estimated assuming 1:1 correlation between signal and receptor occupancy; for ROt1/2: estimated from first calcium response phase at 1 µM ET-1; for proportion of ET-1-induced signal with surmountable mode of antagonism: first calcium response phase, peak, 1 µM ET-1.

For data set [11] the target is unchanged. Briefly: cell-based. The following applies: 120 min pre-incubation. This is another data set of the same source.
The test system of a further data set is angiotensin II receptor. The following applies: cited from earlier work.
The next data set relates to P2Y12. Conditions: cited from earlier work.
Setting [12] is: Kb 10 min, 10 min antagonist pre-incubation, geometric mean n = 6.
[13] abbreviates: Kb 120 min, 120 min antagonist pre-incubation (steady state), geometric mean n = 6.
Where [14] appears, read: Kb PASMC, Table 1, 120 min antagonist pre-incubation, from IC50 via Cheng-Prusoff, geometric mean n = 3–8.
Where [15] appears, read: Kb1 (first calcium response phase), peak fluorescence, IC50 at 8 nM ET-1 via Cheng-Prusoff.
The mark [16] stands for this setting: Kb2 (second sustained calcium response phase), AUC 3–23 min, IC50 at […] ET-1 via Cheng-Prusoff.
[17] abbreviates: Kb IP1 accumulation, 20 min ET-1 stimulation, IC50 at […] ET-1 via Cheng-Prusoff, n = 4.
[18] abbreviates: Schild Kb IP1 accumulation, 90 min ET-1 stimulation, Gaddum/Schild regression, n = 3.

T1 sequence (P24530 27-442): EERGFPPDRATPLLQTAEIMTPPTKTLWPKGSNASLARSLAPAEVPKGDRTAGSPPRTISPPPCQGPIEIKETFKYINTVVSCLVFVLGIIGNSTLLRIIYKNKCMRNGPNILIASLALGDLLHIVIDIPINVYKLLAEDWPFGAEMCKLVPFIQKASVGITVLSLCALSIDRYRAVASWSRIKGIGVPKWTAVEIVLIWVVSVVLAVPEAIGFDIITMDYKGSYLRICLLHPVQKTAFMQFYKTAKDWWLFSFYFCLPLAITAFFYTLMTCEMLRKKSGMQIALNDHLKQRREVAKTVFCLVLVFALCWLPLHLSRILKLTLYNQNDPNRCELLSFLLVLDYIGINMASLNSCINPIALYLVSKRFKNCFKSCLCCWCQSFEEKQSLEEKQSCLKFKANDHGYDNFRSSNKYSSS
T2 sequence (P25101 21-427): as the sequence (P25101 21-427) above

In the case of `CCCC[C@@H](NC(=O)[C@@H](Cc1cn(C(=O)OC)c2ccccc12)NC(=O)[C@H](CC(C)(C)C)NC(=O)N1[C@H](C)CCC[C@@H]1C)C(=O)O` [BQ-788], the Kb on recombinant ETB receptor [1] amounted to 0.09 nM; on recombinant ETA receptor [2], 277 nM; in data set [3] (read-out: Kb 10 min, 10 min antagonist pre-incubation, geometric mean n = 6), 121 nM; in data set [3] (read-out: Kb 120 min, 120 min antagonist pre-incubation (steady state), geometric mean n = 6) it was 117 nM; in [3] (read-out: Kb PASMC, Table 1, 120 min antagonist pre-incubation, from IC50 via Cheng-Prusoff, geometric mean n = 3–8) it was 117 nM. The Kb ratio in data set [3] (Kb 10 min versus 120 min pre-incubation (fold increase in potency)) was determined as 1.0.

Take `COc1ccccc1Oc1c(NS(=O)(=O)c2ccc(C(C)C)cn2)nc(-c2ccnc(-c3nnn[nH]3)c2)nc1OCCO` [tezosentan]: the Kb on recombinant ETB receptor [4] amounted to 0.5 nM; in data set [5] (setting [12]), 0.042 nM; in data set [5] (setting [13]), 0.01 nM; in data set [5] (setting [14]), 0.01 nM; at recombinant ETA receptor [6], 0.26 nM.

Turning to `Cc1cc2c(cc1CC(=O)c1sccc1S(=O)(=O)Nc1onc(C)c1Cl)OCO2` [sitaxentan], the Kb on recombinant ETB receptor [4] stood at 4470 nM; in [5] (setting [12]) it was 2.9 nM; in data set [5] (setting [13]), 4.2 nM; in [5] (setting [14]), 4.2 nM; at recombinant ETA receptor [6], 20 nM.

As to `CC(C)C[C@@H]1NC(=O)[C@@H](C(C)C)NC(=O)[C@@H]2CCCN2C(=O)[C@@H](CC(=O)O)NC(=O)[C@@H](Cc2c[nH]c3ccccc23)NC1=O` [BQ-123] (cyclo(L[dW][dD]P[dV])), the values for the Kb (in data set [5] (setting [12]); in data set [5] (setting [14]); at recombinant ETA receptor [6]) were 0.61 nM, 0.62 nM and 9.4 nM, respectively.

The term Ki denotes the equilibrium dissociation constant of an inhibitor or competing ligand from its target. In the case of `COC(c1ccccc1)(c1ccccc1)[C@H](Oc1nc(C)cc(C)n1)C(=O)O` [ambrisentan], the “receptor occupancy half-life (ROt1/2)” value in data set [7] turned out to be 0.667 min. The values for the inhibition constant Ki in data set [8] (setting [15]) and in [8] (setting [16]) were 0.27 nM and 0.14 nM, respectively. For the same molecule, the “mode of antagonism, IP1 accumulation” value is “surmountable” in data set [9] (20 min ET-1 stimulation) and “surmountable antagonism” in [9] (90 min ET-1 stimulation). For the same molecule, the “proportion of receptors dissociated from within the first 30 seconds” value in data set [10] is recorded as roughly 30%. Also, in [10], the ROt1/2 is less than 1 min. For the same molecule, in data set [10], the “proportion of ET-1-induced signal with surmountable mode of antagonism” value (“proportion of ET-1-induced signal” below) is on record as roughly 30%. For the same molecule, the Kb was 0.11 nM in data set [5] (setting [12]), 0.12 nM in data set [5] (setting [13]), 1.1 nM in data set [11] (setting [17]) and 1.6 nM in data set [11] (setting [18]).

`COc1ccccc1Oc1c(NS(=O)(=O)c2ccc(C(C)(C)C)cc2)nc(-c2ncccn2)nc1OCCO` [bosentan]: the “mode of antagonism, IP1 accumulation” value in [9] (20 min ET-1 stimulation) is on record as “surmountable”. The “mode of antagonism, IP1 accumulation” value in data set [9] (90 min ET-1 stimulation) is on record as “surmountable antagonism”. In addition, in data set [10], the “proportion of receptors dissociated from within the first 30 seconds” value is roughly 50%, the ROt1/2 is less than 1 min and the “proportion of ET-1-induced signal” value is given as roughly 50%.

Take `COc1nc(C)cnc1NS(=O)(=O)c1cccnc1-c1ccc(-c2nnco2)cc1` [zibotentan]: on recombinant ETB receptor [4], the Kb turned out to be 4390 nM.

With `CCCNS(=O)(=O)Nc1ncnc(OCCOc2ncc(Br)cn2)c1-c1ccc(Br)cc1` [macitentan], the “increase in ROt1/2 compared to ambrisentan and bosentan” value in data set [7] is roughly 15 fold. Moreover, in data set [7], the “receptor occupancy half-life (ROt1/2)” value is on record as 17 min. Further, in [7] (over 60 min after washout), the “loss in potency after washout” value was determined as 13 fold. Besides, the inhibition constant Ki amounted to 0.17 nM in [8] (setting [15]) and 0.093 nM in [8] (setting [16]). The “mode of antagonism, IP1 accumulation” value in data set [9] (20 min ET-1 stimulation) is “insurmountable”; in [9] (20 min ET-1 stimulation, listed as Macitentan), “insurmountable antagonism”; in [9] (90 min ET-1 stimulation), “surmountable antagonism”. Also, in data set [10] (AUC 3–23 min after ET-1), the “mode of antagonism, second sustained phase of calcium elevation” value is recorded as “insurmountable”. In [10], the “proportion of ET-1-induced signal” value is “no surmountable behavior”. The Kb in data set [5] (setting [12]) was 0.86 nM; in data set [5] (setting [13]), 0.14 nM; in data set [11] (setting [17]) it was 0.74 nM; in data set [11] (setting [18]) it was 1.4 nM.

For the molecule `CCCCc1nc(Cl)c(CO)n1Cc1ccc(-c2ccccc2-c2nn[nH]n2)cc1` [losartan], the “shorter ROt1/2 compared to candesartan and olmesartan” value in the data set with angiotensin II receptor is 15–25 fold.

`COC(=O)[C@H](c1ccccc1Cl)N1CCc2sccc2C1` [clopidogrel]: in the data set with P2Y12, the binding mode result is recorded as “irreversible binding”.

Values taken from paper PMC3471877 (PLoS ONE, 2012).
